The subject of the test is T84 cells. The test is described as follows: Cl^- secretion measured as short-circuit current (Isc) across T84 cell monolayers in Ussing chambers. The class given is cell-based. As for the experimental part:
Materials and Methods: Cultured T84 epithelial cells were employed as a model of the colonic epithelium. T84 cells were grown as monolayers on filter supports. When grown in this way T84 cells retain many of the characteristics of native intestinal epithelium and are widely considered as being among the best reductionist models for analysing intestinal epithelial secretory responses. T84 cell monolayers were mounted in Ussing chambers, and voltage-clamped to zero potential difference. Under these conditions, transepithelial ion transport can be measured as changes in short-circuit current (Isc) and such changes in Isc across T84 cells have been established as wholly due to Cl^- ion secretion. […]

Consider 6-methyl-UDCA [MUDCA], for which the “secretory responses to CCh” value (100µM and 500µM for 15 minutes before CCh (100µM) (Figure 7)) is “inhibited secretory responses to both CCh and FSK”. In addition, the “secretory responses to FSK” value (100µM and 500µM for 15 minutes before FSK (10µM) (Figure 7)) was “inhibited secretory responses to both CCh and FSK”. Turning to `C[C@H](CCC(=O)O)[C@H]1CC[C@H]2[C@@H]3[C@@H](O)C[C@@H]4C[C@H](O)CC[C@]4(C)[C@H]3CC[C@]12C` [UDCA, ursodeoxycholic acid], for the setting “Homo sapiens, responses to CCh, T84 cells (Figure 3B), read-out: concentration at which antisecretory effects are apparent”, the minimal effective concentration is 50 µM.
